Measured values reported in patent US9045445B2, “Glycine transporter-1 inhibitors, methods of making them, and uses thereof” (Albany Molecular Research, Inc., priority 2010, dated 2015).
Counter-ions that a name gives are not always drawn.

Columns and labels:
[1] = target: T1, glycine transporter-1 (GlyT-1) (Homo sapiens, UniProt P48067); test: [14C]glycine uptake assay in JAR cells endogenously expressing GlyT-1 (scintillation proximity); format: cell-based; details: JAR cells, [14C]glycine 5 μM, 3 hour incubation; read-out: GlyT-1 IC50
T1 construct: JAR cells (ATCC#HTB-144), which endogenously express GlyT-1; host or cells: JAR human choriocarcinoma cells
T1 sequence (P48067 1-706): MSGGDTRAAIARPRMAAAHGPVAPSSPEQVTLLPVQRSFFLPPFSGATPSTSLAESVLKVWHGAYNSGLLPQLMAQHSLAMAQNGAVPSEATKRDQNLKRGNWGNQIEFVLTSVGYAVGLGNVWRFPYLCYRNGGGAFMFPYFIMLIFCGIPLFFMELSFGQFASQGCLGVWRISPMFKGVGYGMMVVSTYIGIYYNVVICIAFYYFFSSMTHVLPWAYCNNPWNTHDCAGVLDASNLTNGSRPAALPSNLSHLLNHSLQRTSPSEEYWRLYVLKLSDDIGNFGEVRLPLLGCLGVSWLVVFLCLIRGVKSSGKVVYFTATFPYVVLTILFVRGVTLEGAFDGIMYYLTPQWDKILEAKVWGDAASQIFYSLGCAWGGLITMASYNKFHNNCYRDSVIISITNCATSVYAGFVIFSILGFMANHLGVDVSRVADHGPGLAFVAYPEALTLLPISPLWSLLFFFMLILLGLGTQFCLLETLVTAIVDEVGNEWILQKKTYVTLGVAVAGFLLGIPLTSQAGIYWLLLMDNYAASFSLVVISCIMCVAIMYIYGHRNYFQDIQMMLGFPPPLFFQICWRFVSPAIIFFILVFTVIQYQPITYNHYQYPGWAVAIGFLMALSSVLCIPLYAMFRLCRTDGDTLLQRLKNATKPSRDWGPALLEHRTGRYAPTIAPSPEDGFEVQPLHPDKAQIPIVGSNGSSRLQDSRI
Summary of the method: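 Human choriocarcinoma JAR cells (endogenous GlyT-1) attached overnight, then pre-incubated 10 min at room temperature with compound in pH 7.4 Hepes uptake buffer containing 5 mM alanine and 0.75% DMSO. Uptake of 5 μM [14C]glycine over 3 h at 37 °C read by scintillation proximity; IC50 from four-parameter fit of nine-point curves.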

[2] = target: T2, glycine transporter-2 (GlyT-2) (Homo sapiens, UniProt Q9Y345); test: [14C]glycine uptake assay in HEK-GlyT-2 transfected cells; format: cell-based; details: HEK-GlyT-2 cells
T2 construct: expressed in transfected cells
T2 sequence (Q9Y345 1-797): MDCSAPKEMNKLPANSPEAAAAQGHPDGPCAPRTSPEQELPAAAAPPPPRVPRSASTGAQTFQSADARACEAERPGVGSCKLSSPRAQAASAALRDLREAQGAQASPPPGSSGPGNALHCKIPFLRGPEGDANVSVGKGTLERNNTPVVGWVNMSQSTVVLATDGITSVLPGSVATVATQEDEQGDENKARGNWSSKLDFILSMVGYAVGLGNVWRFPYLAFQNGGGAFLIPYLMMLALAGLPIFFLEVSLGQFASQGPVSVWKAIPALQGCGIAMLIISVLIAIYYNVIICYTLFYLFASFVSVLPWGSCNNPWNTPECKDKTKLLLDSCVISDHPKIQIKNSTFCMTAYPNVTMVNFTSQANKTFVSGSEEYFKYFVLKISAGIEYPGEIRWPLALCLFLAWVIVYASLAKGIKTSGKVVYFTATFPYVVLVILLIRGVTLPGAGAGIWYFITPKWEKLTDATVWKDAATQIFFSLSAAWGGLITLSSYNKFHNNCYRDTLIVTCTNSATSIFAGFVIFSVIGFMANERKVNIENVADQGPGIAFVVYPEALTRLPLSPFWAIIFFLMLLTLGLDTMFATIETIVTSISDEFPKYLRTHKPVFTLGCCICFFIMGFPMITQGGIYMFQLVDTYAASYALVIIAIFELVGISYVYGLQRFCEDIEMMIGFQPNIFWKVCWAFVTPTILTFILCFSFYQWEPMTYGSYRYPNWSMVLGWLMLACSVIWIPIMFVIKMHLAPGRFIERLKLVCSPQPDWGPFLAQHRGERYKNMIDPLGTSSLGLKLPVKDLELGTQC

SMILES | IC50 [1] | IC50 [2]
Cn1cc(S(=O)(=O)N2CCN(C3(CNC(=O)c4cc(F)c(F)cc4Cl)CCC(F)(F)CC3)CC2)nn1 [compound 235, 2-Chloro-N-((4,4-difluoro-1-(4-(1-methyl-1H-1,2,3-triazol-4-ylsulfonyl)piperazin-1-yl)cyclohexyl)methyl)-4,5-difluorobenzamide Hydrochloride] | 3 nM | > 75 µM
COc1cc(F)cc(C)c1C(=O)NCC1(N2CCN(S(=O)(=O)CC3CC3)CC2)CCCCC1 [compound 79, N-((1-(4-(Cyclopropylmethyl-sulfonyl)piperazin-1-yl)cyclohexyl)methyl)-4-fluoro-2-methoxy-6-methylbenzamide Hydrochloride] | 29 nM | > 75 µM
CCCS(=O)(=O)N1CCN(C2(CNC(=O)c3ccc(Cl)cc3Cl)CCCCCC2)CC1 [compound 60, 2,4-Dichloro-N-((1-(4-(propylsulfonyl)piperazin-1-yl)cycloheptyl)methyl) benzamide Hydrochloride] | 11 nM | > 75 µM
CCCS(=O)(=O)N1CCN(C2(CNC(=O)c3c(C)cc(F)cc3OC)CCCCCC2)CC1 [compound 69, 4-Fluoro-2-methoxy-6-methyl-N-((1-(4-(propylsulfonyl)piperazin-1-yl)cycloheptyl)methyl) benzamide Hydrochloride] | 4 nM | > 75 µM
CCCS(=O)(=O)N1CCN(C2(CNC(=O)c3ccc(C(F)(F)F)cc3)CCCCCC2)CC1 [compound 61, N-((1-(4-(Propylsulfonyl)piperazin-1-yl)cycloheptyl)methyl)-4-(trifluoromethyl) benzamide Hydrochloride] | 105 nM | 28 µM
CCCS(=O)(=O)N1CCN(C2(CNC(=O)c3ccc(Cl)cc3Cl)CCCOC2)CC1 (centres unmarked) [compound 125, 2,4-Dichloro-N-((3-(4-(propylsulfonyl)piperazin-1-yl)tetrahydro-2H-pyran-3-yl)methyl)benzamide Hydrochloride] | 177 nM | > 75 µM
CCCS(=O)(=O)N1CCN(C2(CNC(=O)c3c(F)cc(Cl)cc3F)CCCCCC2)CC1 [compound 51, 4-Chloro-2,6-difluoro-N-((1-(4-propylsulfonyl)piperazin-1-yl)cycloheptyl)methyl) benzamide Hydrochloride] | 13 nM | > 75 µM
CCCS(=O)(=O)N1CCN(C2(CNC(=O)c3c(F)cccc3F)CCCCCC2)CC1 [compound 66, 2,6-Difluoro-N-((1-(4-(propylsulfonyl)piperazin-1-yl)cycloheptyl)methyl) benzamide Hydrochloride] | 29 nM | > 45 µM
CCCS(=O)(=O)N1CCN(C2(CNC(=O)c3ccccc3Cl)CCCCC2)CC1 [compound 8, 2-Chloro-N-((1-(4-(propylsulfonyl)piperazin-1-yl)cyclohexyl)methyl) benzamide Hydrochloride] | 36 nM | > 75 µM
CCCS(=O)(=O)N1CCN(C2(CNC(=O)c3c(C)cccc3F)CCCCC2)CC1 [compound 49, 2-Fluoro-6-methyl-N-((1-(4-(propylsulfonyl)piperazin-1-yl)cyclohexyl)methyl) benzamide Hydrochloride] | 16 nM | > 75 µM
CCCS(=O)(=O)N1CCN(C2(CNC(=O)c3ccc(Cl)cc3C(F)(F)F)CCC(F)(F)CC2)CC1 [compound 245, 4-Chloro-N-((4,4-difluoro-1-(4-(propylsulfonyl)piperazin-1-yl)cyclohexyl)methyl)-2-(trifluoromethyl)benzamide Hydrochloride] | 18 nM | > 75 µM
CCCS(=O)(=O)N1CCN(C2(CNC(=O)c3c(OC)cc(C(F)(F)F)cc3C(F)(F)F)CCCCC2)CC1 [compound 21, 2-Methoxy-N-((1(1-(4-(propylsulfonyl)piperazin-1-yl)cyclohexyl)methyl)-4,6-bis(trifluoromethyl)benzamide Hydrochloride] | 4 nM | 39 µM
CCCS(=O)(=O)N1CCN(C2(CNC(=O)c3ccc(Cl)cc3Cl)CCC(F)(F)CC2)CC1 [compound 136, 2,4-Dichloro-N-((4,4-difluoro-1-(4-(propylsulfonyl)piperazin-1-yl)cyclohexyl)methyl) benzamide Hydrochloride] | 36 nM | > 75 µM
CCCS(=O)(=O)N1CCN(C2(CNC(=O)c3c(Cl)cccc3Cl)CCCCCC2)CC1 [compound 64, 2,6-Dichloro-N-((1-(4-(propylsulfonyl)piperazin-1-yl)cycloheptyl)methyl) benzamide Hydrochloride] | 11 nM | > 75 µM
Cn1cc(S(=O)(=O)N2CCN(C3(CNC(=O)c4c(F)cc(Cl)cc4F)CCC(F)(F)CC3)CC2)nn1 [compound 230, 4-Chloro-N-((4,4-difluoro-1-(4-(1-methyl-1H-1,2,3-triazol-4-ylsulfonyl)piperazin-1-yl)cyclohexyl)methyl)-2,6-difluorobenzamide Hydrochloride] | 3 nM | > 75 µM
CCCS(=O)(=O)N1CCN(C2(CNC(=O)c3ccc(OC(F)(F)F)cc3)CCCCCC2)CC1 [compound 62, N-((1-(4-(Propylsulfonyl)piperazin-1-yl)cycloheptyl)methyl)-4-(trifluoromethoxy) benzamide Hydrochloride] | 81 nM | 3.64 µM
CC(NC(=O)c1ccc(C(F)(F)F)cc1C(F)(F)F)C1(N2CCN(S(=O)(=O)c3cn(C)nn3)CC2)CCC(F)(F)CC1 (centres unmarked) [compound 225, N-(1-(4,4-Difluoro-1-(4-(1-methyl-1H-1,2,3-triazol-4-ylsulfonyl)piperazin-1-yl)cyclohexyl)ethyl)-2,4-bis(trifluoromethyl) benzamide Hydrochloride] | 28 nM | > 75 µM
Cn1cc(S(=O)(=O)N2CCN(C3(CNC(=O)c4ccc(Cl)cc4Cl)CCOCC3)CC2)nn1 [compound 129, 2,4-Dichloro-N-((4-(4-(1-methyl-1H-1,2,3-triazol-4-ylsulfonyl)piperazin-1-yl)tetrahydro-2H-pyran-4-yl)methyl)benzamide Hydrochloride] | 11 nM | > 75 µM
CCCS(=O)(=O)N1CCN(C2(CNC(=O)c3c(OC)cc(F)cc3SC)CCOCC2)CC1 [compound 122, 4-Fluoro-2-methoxy-6-(methylthio)-N-((4-(4-(propylsulfonyl)piperazin-1-yl)tetrahydro-2H-pyran-4-yl)methyl)benzamide Hydrochloride] | 95 nM | > 75 µM
CCCS(=O)(=O)N1CCN(C2(CNC(=O)c3c(F)cc(F)cc3F)CCCCC2)CC1 [compound 48, 2,4,6-Trifluoro-N-((1-(4-(propylsulfonyl)piperazin-1-yl)cyclohexyl)methyl) benzamide Hydrochloride] | 16 nM | > 75 µM
COc1cc(F)cc(C)c1C(=O)NCC1(N2CCN(S(=O)(=O)c3cn(C)cn3)CC2)CCCC1 [compound 103, 4-Fluoro-2-methoxy-6-methyl-N-((1-(4-(1-methyl-1H-imidazol-4-ylsulfonyl)piperazin-1-yl)cyclopentyl)methyl) benzamide Hydrochloride] | 45 nM | > 75 µM
Cn1cc(S(=O)(=O)N2CCN(C3(CNC(=O)c4ccc(Cl)cc4Cl)CCCC3)CC2)nn1 [compound 110, 2,4-Dichloro-N-((1-(4-(1-methyl-1H-1,2,3-triazol-4-ylsulfonyl)piperazin-1-yl)cyclopentyl)methyl) benzamide Hydrochloride] | 27 nM | > 75 µM
